According to PubChem BioAssay (NCI):
Where “and” joins values, the source holds several entries; their conditions need not be identical. Identical values can stand only once.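 Cultured in 96-well plates, cells were exposed to test compound for 48 hours across five concentrations. At the GI50, growth is halved. TGI denotes the concentration required for complete inhibition of growth.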

These molecules were tested on M14 melanoma (assay: DTP human tumour cell line panel, 48 h).

Compound	TGI [µM]	GI50
COc1cc2c(c(O)c1C)C(=O)C(Cl)=CC2=O	16.5	
CN=C1NC(=O)/C(=C/c2ccc3ncccc3c2)S1	> 25	9.6 µM
CN(C)CCNC(=O)c1cccc2nc3c(Cl)cccc3nc12	> 36.8	
C[C@]12CCC(=O)C=C1CC[C@@H]1C2CC[C@]2(C)NC(=O)C(C#N)CC12 (some centres undefined)	> 100	
C/C(=N\NC(N)=S)c1ccc(C)cc1C	> 100	
OCc1c(-c2cccc3ccccc23)sc(-c2cccc3ccccc23)c1CO	28.9	
CN(C)c1ccc2c(c1)oc(=O)c1ccccc12	26.5	
O=C1c2ccccc2-c2c1c1cc3c(cc1c(=O)n2CCCCl)OCO3	> 100	65.3 µM
C#CC(C)(C)Oc1cc(O)c2c(=O)c3ccccc3n(C)c2c1	> 100	
COc1ccc(CNC(=O)COc2ccc(/C=N/Nc3nc4ccccc4s3)cc2)cc1	> 100	4.69 µM
O=C(O)CCCc1ccc(N(CCCl)CCCl)cc1		14.9 µM and 91.3 µM
CC1CCC[P+](Cc2ccccc2)(c2ccccc2)CC1 (centres undefined)	> 100	

The molecules below were run on MOLT-4 leukemia (assay: DTP human tumour cell line panel, 48 h).

Compound	TGI	GI50 [µM]
O=C1CC[C@H]2CNC(=O)C[C@H]2C1	> 100 µM	
O=[N+]([O-])c1ccc(NSc2ccccc2)cc1	49.4 µM	
Cc1cccc2c3ccc4c(c3n(C)c12)C(=O)C=CC4=O	> 100 µM	
Cc1c(Cl)cccc1Nc1ncccc1C(=O)O	> 100 µM	> 100
COc1cc2c(c(O)c1C)C(=O)C(Cl)=CC2=O	8.66 µM	
CN=C1NC(=O)/C(=C/c2ccc3ncccc3c2)S1	> 25 µM	11.2
CN(C)CCNC(=O)c1cccc2nc3c(Cl)cccc3nc12	10.4 µM	
C[C@]12CCC(=O)C=C1CC[C@@H]1C2CC[C@]2(C)NC(=O)C(C#N)CC12 (some centres undefined)	> 100 µM	
C/C(=N\NC(N)=S)c1ccc(C)cc1C	> 100 µM	
OCc1c(-c2cccc3ccccc23)sc(-c2cccc3ccccc23)c1CO	42.2 µM	
CN(C)c1ccc2c(c1)oc(=O)c1ccccc12	73.3 µM	
O=C1c2ccccc2-c2c1c1cc3c(cc1c(=O)n2CCCCl)OCO3	> 100 µM	35
C#CC(C)(C)Oc1cc(O)c2c(=O)c3ccccc3n(C)c2c1	> 100 µM	
COc1ccc(CNC(=O)COc2ccc(/C=N/Nc3nc4ccccc4s3)cc2)cc1	> 100 µM	> 100
O=C(O)CCCc1ccc(N(CCCl)CCCl)cc1	12.7 µM and 104 µM	0.999
CC1CCC[P+](Cc2ccccc2)(c2ccccc2)CC1 (centres undefined)	> 100 µM	

The molecules below were run on SF-539 CNS (assay: DTP human tumour cell line panel, 48 h).

Compound	TGI	GI50
O=C1CC[C@H]2CNC(=O)C[C@H]2C1	> 100 µM	
O=[N+]([O-])c1ccc(NSc2ccccc2)cc1	44.6 µM	
Cc1cccc2c3ccc4c(c3n(C)c12)C(=O)C=CC4=O	> 100 µM	
Cc1c(Cl)cccc1Nc1ncccc1C(=O)O	> 100 µM	77.2 µM
COc1cc2c(c(O)c1C)C(=O)C(Cl)=CC2=O	33.5 µM	
CN=C1NC(=O)/C(=C/c2ccc3ncccc3c2)S1	> 25 µM	5.88 µM
CN(C)CCNC(=O)c1cccc2nc3c(Cl)cccc3nc12	16.8 µM	
C[C@]12CCC(=O)C=C1CC[C@@H]1C2CC[C@]2(C)NC(=O)C(C#N)CC12 (some centres undefined)	> 100 µM	
C/C(=N\NC(N)=S)c1ccc(C)cc1C	> 100 µM	
OCc1c(-c2cccc3ccccc23)sc(-c2cccc3ccccc23)c1CO	28.8 µM	
CN(C)c1ccc2c(c1)oc(=O)c1ccccc12	35.5 µM	
O=C1c2ccccc2-c2c1c1cc3c(cc1c(=O)n2CCCCl)OCO3	> 100 µM	51.4 µM
C#CC(C)(C)Oc1cc(O)c2c(=O)c3ccccc3n(C)c2c1	58.1 µM	
COc1ccc(CNC(=O)COc2ccc(/C=N/Nc3nc4ccccc4s3)cc2)cc1	4.18 µM	1.65 µM
O=C(O)CCCc1ccc(N(CCCl)CCCl)cc1	26.9 µM and 99.4 µM and 89.6 µM	7.28 µM and 18.2 µM
CC1CCC[P+](Cc2ccccc2)(c2ccccc2)CC1 (centres undefined)	> 100 µM	

The molecules below were run on SK-MEL-2 melanoma (assay: DTP human tumour cell line panel, 48 h).

Compound	TGI	GI50
O=C1CC[C@H]2CNC(=O)C[C@H]2C1	> 100 µM	
O=[N+]([O-])c1ccc(NSc2ccccc2)cc1	> 100 µM	
Cc1cccc2c3ccc4c(c3n(C)c12)C(=O)C=CC4=O	> 100 µM	
Cc1c(Cl)cccc1Nc1ncccc1C(=O)O	> 100 µM	> 100 µM
COc1cc2c(c(O)c1C)C(=O)C(Cl)=CC2=O	31.2 µM	
CN=C1NC(=O)/C(=C/c2ccc3ncccc3c2)S1	14.4 µM	5.42 µM
CN(C)CCNC(=O)c1cccc2nc3c(Cl)cccc3nc12	18.6 µM	
C[C@]12CCC(=O)C=C1CC[C@@H]1C2CC[C@]2(C)NC(=O)C(C#N)CC12 (some centres undefined)	> 100 µM	
C/C(=N\NC(N)=S)c1ccc(C)cc1C	> 100 µM	
OCc1c(-c2cccc3ccccc23)sc(-c2cccc3ccccc23)c1CO	28.2 µM	
CN(C)c1ccc2c(c1)oc(=O)c1ccccc12	23.2 µM	
O=C1c2ccccc2-c2c1c1cc3c(cc1c(=O)n2CCCCl)OCO3	> 100 µM	> 100 µM
C#CC(C)(C)Oc1cc(O)c2c(=O)c3ccccc3n(C)c2c1	> 100 µM	
COc1ccc(CNC(=O)COc2ccc(/C=N/Nc3nc4ccccc4s3)cc2)cc1	16 µM	3.84 µM
O=C(O)CCCc1ccc(N(CCCl)CCCl)cc1	52 µM and 314 µM and 344 µM	31.8 µM and 270 µM
CC1CCC[P+](Cc2ccccc2)(c2ccccc2)CC1 (centres undefined)	78.2 µM	

These molecules were tested on TK-10 renal (assay: DTP human tumour cell line panel, 48 h).

Compound	TGI	GI50
O=C1CC[C@H]2CNC(=O)C[C@H]2C1	> 100 µM	
O=[N+]([O-])c1ccc(NSc2ccccc2)cc1	> 100 µM	
Cc1cccc2c3ccc4c(c3n(C)c12)C(=O)C=CC4=O	> 100 µM	
Cc1c(Cl)cccc1Nc1ncccc1C(=O)O	> 100 µM	> 100 µM
COc1cc2c(c(O)c1C)C(=O)C(Cl)=CC2=O	15.3 µM	
CN=C1NC(=O)/C(=C/c2ccc3ncccc3c2)S1	> 25 µM	6.02 µM
CN(C)CCNC(=O)c1cccc2nc3c(Cl)cccc3nc12	> 54.8 µM	
C[C@]12CCC(=O)C=C1CC[C@@H]1C2CC[C@]2(C)NC(=O)C(C#N)CC12 (some centres undefined)	> 100 µM	
C/C(=N\NC(N)=S)c1ccc(C)cc1C	> 100 µM	
OCc1c(-c2cccc3ccccc23)sc(-c2cccc3ccccc23)c1CO	26.9 µM	
CN(C)c1ccc2c(c1)oc(=O)c1ccccc12	40 µM	
O=C1c2ccccc2-c2c1c1cc3c(cc1c(=O)n2CCCCl)OCO3	75.2 µM	30.9 µM
C#CC(C)(C)Oc1cc(O)c2c(=O)c3ccccc3n(C)c2c1	> 100 µM	
COc1ccc(CNC(=O)COc2ccc(/C=N/Nc3nc4ccccc4s3)cc2)cc1	16.3 µM	3.49 µM
O=C(O)CCCc1ccc(N(CCCl)CCCl)cc1	70.8 µM and 471 µM and 221 µM	25.4 µM and 81.4 µM
CC1CCC[P+](Cc2ccccc2)(c2ccccc2)CC1 (centres undefined)	> 100 µM	
